Results from US20170121344A1 (Siga Technologies, Inc., priority 2009, published 2017).
Where two headings read alike, the source gives them in different places.

Tested on: Dengue-2 (Strain New Guinea C)
Experiment: Viral yield assay against Dengue-2 in Vero cells
Assay type: cell-based, Dengue virus
Summary of the method: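 Yield reduction, Vero; MOI 0.1; compound vs DMSO; 37° C; harvest 48 h p.i.; titer on Vero; EC50 fitted. Other serotypes run the same way.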

[1] = Dengue virus, DENV2, viral yield assay, Vero cells, MOI 0.1, 48 hours post infection, read-out: Activity (EC50 in μM) DENV-2
[2] = Dengue virus, Vero cells, MOI 0.1, harvested 48 hours post infection, read-out: Activity (EC50 class) against Dengue-2 Virus in Vero cells

| Molecule | EC50 [2] | also measured |
| --- | --- | --- |
| COc1ccc(NC(=O)c2sc3nc(-c4ccc(OC)c(OC)c4)ccc3c2N)c(C)c1 [Compound 500, 3-amino-6-(3,4-dimethoxyphenyl)-N-(4-methoxy-2-methyl-phenyl)thieno[2,3-b] pyridine-2-carboxamide] | – | EC50 [1]: < 5 µM |
| COCc1cc(C)nc2sc3c(=O)n(-c4ccc(C)cc4C)nnc3c12 [Compound 151, 3-(2,4-Dimethyl-phenyl)-9-methoxymethyl-7-methyl-3H-pyrido[3′,2′:4,5]thieno[3,2-d][1,2,3]triazin-4-one] | > 25 µM | – |
| COCc1cc(C)nc2sc(C(=O)Nc3ccccc3)c(N)c12 [Compound 124, 3-Amino-4-methoxymethyl-6-methyl-thieno[2,3-b]pyridine-2-carboxylic acid phenylamide] | > 25 µM | – |
| N-(1-adamantyl)-3-amino-6-(2-thienyl) thieno[2,3-b]pyridine-2-carboxamide [Compound 426] | – | EC50 (viral yield assay, Vero cells, MOI 0.1, 48 hours post infection, read-out: Activity (EC50 in μM) DENV-2): < 5 µM |
| COc1cccc(-c2ccc3c(N)c(C(=O)Nc4ccc(F)c(F)c4)sc3n2)c1 [Compound 525, 3-amino-N-(3,4-difluorophenyl)-6-(3-methoxyphenyl)thieno[2,3-b]pyridine-2-carboxamide] | – | EC50 [1]: < 5 µM |
| Nc1c(C(=O)Nc2nnc(-c3ccccc3)s2)sc2nc3c(cc12)CCC3 [Compound 88, 3-Amino-6,7-dihydro-5H-cyclopenta[b]thieno[3,2-e]pyridine-2-carboxylic acid (5-phenyl-[1,3,4]thiadiazol-2-yl)-amide] | 5 to 25 µM | – |
| CC1(C)Cc2nc3sc4c(=O)n(Cc5ccc(Cl)cc5Cl)cnc4c3cc2CO1 [Compound 252, 2-(2,4-Dichloro-benzyl)-8,8-dimethyl-8,9-dihydro-2H,6H-7-oxa-11-thia-2,4,10-triaza-benzo[b]fluoren-1-one] | > 25 µM | – |
| CCOc1ccc(-c2c3c(nc4sc(C(=O)Nc5nccs5)c(N)c24)CCCC3)cc1 [Compound 241, 3-Amino-4-(4-ethoxy-phenyl)-5,6,7,8-tetrahydro-thieno[2,3-b]quinoline-2-carboxylic acid thiazol-2-ylamide] | > 25 µM | – |
| Nc1c(C(=O)Nc2ccc([N+](=O)[O-])cc2)sc2nc3c(c(-c4ccco4)c12)CCCC3 [Compound 213, 3-Amino-4-furan-2-yl-5,6,7,8-tetrahydro-thieno[2,3-b]quinoline-2-carboxylic acid (4-nitro-phenyl)-amide] | > 25 µM | – |
| CCN(C(=O)c1sc2nc(C)cc(C(F)(F)F)c2c1C)c1ccccc1 [Compound 406] | – | EC50 [1]: < 5 µM |
| COc1cc(-c2c(C#N)c(N)nc3sc(C(N)=O)c(N)c23)cc(OC)c1OC [Compound 155, 3,6-Diamino-5-cyano-4-(3,4,5-trimethoxy-phenyl)-thieno[2,3-b]pyridine-2-carboxylic acid amide] | > 25 µM | – |
| CC1(C)Cc2nc3sc4c(=O)[nH]cnc4c3cc2CS1 [Compound 232, 8,8-Dimethyl-8,9-dihydro-2H,6H-7,11-dithia-2,4,10-triaza-benzo[b]fluoren-1-one] | – | EC50 (Dengue virus, Vero, 48 h, read-out: Activity (EC50 class) against Dengue-2 Virus in Vero cells): > 25 µM |
| COc1ccc(OC)c(CN2CCN(C(=O)c3sc4nc(C)cc(C)c4c3C)CC2)c1 [Compound 407, [4-[(2,5-dimethoxyphenyl)methyl)piperazin-1-yl]-(3,4,6-trimethylthieno [2,3-b]pyridin-2-yl)methanone] | – | EC50 [1]: > 25 µM |
| Cc1ccc(NC(=O)c2sc3nc4c(cc3c2N)CN(C)CC4)c(F)c1 [Compound 104, 3-Amino-6-methyl-5,6,7,8-tetrahydro-thieno[2,3-b][1,6]naphthyridine-2-carboxylic acid (2-fluoro-4-methyl-phenyl)-amide] | 5 to 25 µM | – |
| COc1ccc(NC(=O)c2sc3nc(-c4cccs4)ccc3c2N)c(OC)c1 [Compound 432, 3-amino-N-(2,4-dimethoxyphenyl)-6-(2-thienyl)thieno[2,3-b]pyridine-2-carboxamide] | – | EC50 (Dengue virus, DENV2, Vero, 48 h, read-out: Activity (EC50 in μM) DENV-2): 5 to 25 µM |
| Cc1cc(C(F)(F)F)c2c(N)c(C(=O)Nc3cccc4ccccc34)sc2n1 [Compound 128, 3-Amino-6-methyl-4-trifluoromethyl-thieno[2,3-b]pyridine-2-carboxylic acid naphthalen-1-ylamide] | > 25 µM | – |
